{
  "source": "paper PMC12005787",
  "about": "“Synthetic Lethality of SHP2 and XIAP Suppresses Proliferation and Metastasis in KRAS‐mutant Nonsmall Cell Lung Cancer” (Advanced Science, 2025)",
  "key": {"A549 and NCI‐H2122 cells": {"tested_on": "A549 and NCI‐H2122 cells", "assay": "Cell invasion assay", "type": "cell-based, human", "details": "embelin 1 and 2.5 µM; 24 h", "method": "NCI-H2122 and A549 cells were pre-starved in serum-free medium for 24 h and resuspended in serum-free medium containing 5 mg mL-1 BSA. The cell suspension was added to Transwell chambers at a density of 5×105 mL-1, and RPMI-1640 or Ham F-12K medium containing 10% FBS was added to the bottom of the Transwell chambers.\nSubsequently, drugs were added to the chambers and incubated at 37 °C for 48 h and cells were then fixed with 4% neutral formaldehyde for 40 min and stained with 0.1% crystal violet for 60 min. The chamber was washed with triple-distilled water, and images were collected using an inverted microscope. […]\nDepending on the molecular weight of the proteins, different concentrations of sodium dodecyl-sulfate polyacrylamide gel electrophoresis (SDS-PAGE) separator gels were prepared for protein electrophoresis. Equal amounts of proteins were sampled and subjected to SDS-PAGE gel electrophoresis; at the end of electrophoresis, the proteins were transferred to nitrocellulose (NC) membranes. The NC membrane was blocked with 5% skim milk and covered with a specific primary antibody overnight at 4 °C, in which the primary antibody was diluted at a ratio of 1:500–1:5000. The NC membrane was […]"}, "NCI‐H2122 cells": {"tested_on": "NCI‐H2122 cells", "assay": "ROS release assay", "type": "cell-based, human", "details": "24 h", "method": "incubated with a horseradish peroxidase (HRP)-conjugated secondary antibody at room\ntemperature for 2 h and then incubated with enhanced chemiluminescence (ECL) solutions for\n15 s at room temperature. A fully automated gel imaging system (General Electric Company,\nUSA) was used for the exposure imaging.\nNCI-H2122 cells were inoculated into 96-well plates specialized for high-content cell\nimaging, treated with various drugs, fixed with 4% neutral formaldehyde, and sealed with 5%\nBSA after permeabilization with 0.05% Triton X-100. Subsequently, the cells were incubated\nwith the given primary antibody overnight at 4 °C and then with corresponding fluorescent\nsecondary antibody in dark at room temperature for 1 h. […] (DAPI)\nwas applied to nuclear staining. Fluorescence images were captured using a high-content\nanalyzer (Thermo Scientific, USA).\nNCI-H2122 cells treated with the given disposal were digested with trypsin, resuspended\nin cold PBS, and centrifuged at room temperature (1000×g for 5 min) to discard the\nsupernatant. […]\nRNaseA) was incubated in dark at 37℃ for 30 min. Red fluorescence and light scattering\nwere detected by flow cytometry at 488 nm. Cell cycle results were analyzed and visualized […]\nintracellular ROS levels were detected by flow cytometry (λa = 488 nm, λe = 525 nm). […]\nsealed with a DAPI-containing anti-fluorescence quenching sealer for 30 min at room […]"}, "TCPTP": {"molecular_target": "T1, TCPTP (Homo sapiens, UniProt P17706)", "T1 construct": "His; made in house; host or cells: E. coli", "T1 sequence (P17706 1-415)": "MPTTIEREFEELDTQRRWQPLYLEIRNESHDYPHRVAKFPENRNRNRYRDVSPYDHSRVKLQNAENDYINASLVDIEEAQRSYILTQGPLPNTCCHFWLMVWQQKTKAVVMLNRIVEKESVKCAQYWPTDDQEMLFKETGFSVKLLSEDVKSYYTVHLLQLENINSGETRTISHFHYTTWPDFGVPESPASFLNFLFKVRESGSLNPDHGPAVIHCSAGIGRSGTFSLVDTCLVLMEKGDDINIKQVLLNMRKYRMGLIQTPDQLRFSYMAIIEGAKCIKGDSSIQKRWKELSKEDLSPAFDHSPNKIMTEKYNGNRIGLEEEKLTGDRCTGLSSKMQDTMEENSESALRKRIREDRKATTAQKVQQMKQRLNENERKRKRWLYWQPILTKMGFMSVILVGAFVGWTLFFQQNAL", "assay": "PTPs activity assay (DiFMUP)", "type": "biochemical", "method": "Catalytic activity screening methods for PTPs using candidate compounds were performed as previously described.^[ [77] ^] In brief, soluble fusion PTP proteins, His‐ΔSHP2, encompassing the peptide from amino acids 205–593 retaining PTP activity, His‐ΔSHP2^K325A, His‐ΔSHP1, encompassing the peptide from amino acids 202–595 retaining PTP activity, His‐PTP1B, His‐HePTP, His‐VHR, and His‐TCPTP were cloned, expressed, and purified in E. coli. After determining protein concentration using bicinchoninic acid (BCA) assay kit, 1 µg fusion protein, 10 µM library compound were added in 100 µL reaction mixture (55 mM 4‐(2‐hydroxyethyl)‐1‐piperazineethanesulfonic acid [HEPES], 100 mM sodium chloride [NaCl], 0.5 mM ethylenediaminetetraacetic acid [EDTA], 1 mM dithiothreitol [DTT], 0.01% Triton X‐100, 0.002% bovine serum albumin [BSA], and 0.1% dimethyl sulfoxide [DMSO]) and incubated at 37 °C for 30 min in the dark, with Na3VO4 as positive control. The detection substrate DiFMUP (50 µM) was promptly added to each reaction and functioned at 37 °C for 30 min in the dark. The fluorescence intensity was then measured using Multimode Plate Reader (λa = 358 nm, λe = 455 nm, PerkinElmer, USA)."}},
  "data": [
    {"smiles": "CCCCCCCCCCCC1=C(O)C(=O)C=C(O)C1=O", "note": "[Embelin]", "values": [
      {"measurement": "effect on invasive ability", "setting": "A549 and NCI‐H2122 cells", "result": "significantly inhibited the invasive ability"},
      {"measurement": "effect on ROS release", "setting": "NCI‐H2122 cells", "result": "promoted ROS release"},
      {"measurement": "IC50", "setting": "TCPTP", "result": "> 200", "unit": "µM"}
    ]},
    {"smiles": "O=C1Nc2ccc(I)cc2/C1=C/c1cc(Br)c(O)c(Br)c1", "note": "[S2872, GW5074]", "values": [
      {"measurement": "IC50", "setting": "TCPTP", "result": 322, "unit": "µM"}
    ]},
    {"smiles": "CC1(N)CCN(c2cnc(-c3cccc(Cl)c3Cl)c(N)n2)CC1", "note": "[SHP099]", "values": [
      {"measurement": "effect on invasive ability", "setting": "A549 and NCI‐H2122 cells", "result": "significantly inhibited the invasive ability"},
      {"measurement": "effect on ROS release", "setting": "NCI‐H2122 cells", "result": "promoted ROS release"}
    ]}
  ]
}
